Test results from PMC6006850, “Assessment of new HDAC inhibitors for immunotherapy of malignant pleural mesothelioma” (Clinical Epigenetics, 2018).
Where two headings read alike, the source gives them in different places.

Legend:
CD8 T-cell clones = assay: Cell viability (CellTiter-Glo) of CD8 T-cell clones treated with HDACi, with or without decitabine; assay type: cell-based, human; design: AUC (Area Under the Curve) T-CD8 clones - 5-aza: unit not given beside the values; details: for AUC (Area Under the Curve) T-CD8 clones + 5-aza 500nM / AUC (Area Under the Curve) T-CD8 clones - 5-aza: viability dose-response curve; for AUC (Area Under the Curve) T-CD8 clones + 5-aza 500nM: decitabine 500 nM pretreatment; for AUC (Area Under the Curve) T-CD8 clones - 5-aza: no decitabine; for IC50: Homo sapiens, T-cell
[1] = cited from earlier work
PD-L1 (B7-H1) mRNA = assay: PD-L1 mRNA expression in MPM cells by real time PCR; details: for PD-L1 mRNA: HDACi 48 h combined with decitabine 500 nM (72 h pretreatment); for PD-L1 expression: two additional MPM cell lines (Meso34 and Meso45), molecule alone
Experimental: (§4) All real-time PCR reactions were performed using the Mx3005P QPCR Systems (Stratagen Products, Agilent Technologies), and the amplifications were done using the SYBR Green PCR Master Mix SAB bioscience (Qiagen) mixed with Oligonucleotides QuantiTect Primer (Qiagen). The thermal cycling conditions were composed of 1 cycle at 95 °C for 10 min, 40 cycles at 95 °C for 30 s and 60 °C for 1 min, and 1 cycle at 95 °C for 1 min, 60 °C for 30 s, and 95 °C for 30 s. The experiments were carried out in duplicate for each data point. All the qPCR data were analyzed by MxPro software.

lymphocytes = assay: Cell viability (CellTiter-Glo) of lymphocytes treated with HDACi, with or without decitabine; design: hematological toxicity: dose or concentration left out as unconfirmed; AUC (Area Under the Curve) Lymphocytes - 5-aza: unit not given beside the values; details: for AUC (Area Under the Curve) Lymphocytes + 5-aza 500nM / AUC (Area Under the Curve) Lymphocytes - 5-aza: viability dose-response curve; for AUC (Area Under the Curve) Lymphocytes + 5-aza 500nM: decitabine 500 nM pretreatment; for AUC (Area Under the Curve) Lymphocytes - 5-aza: no decitabine
[2] = system: natural killer cells (NK) (CD56+, CD16+); assay: Flow cytometry of natural killer cell proportion in treated lymphocytes; assay type: cell-based, human
Experimental: (§1) For flow cytometry experiments, lymphocytes were seeded at 4 × 10^5cells/well in a flat-bottomed 96-well plate in 180 μl RPMI 1640 8% HS. […]
(§2) The day of analysis, cells were stained in a conical-bottomed 96-well plate at 10^5 cells/well. The plate was centrifuged at 800×g for 1 min, and the pellets were washed using 200 μl/well of PBS containing BSA 0.1% (wash buffer). Antibodies (see Additional file 2: Table S2) were used at a dilution of 1/30 in the wash buffer, and then, the plate was incubated at 4 °C for 30 min. Later, two washings were performed using the wash buffer prior to flow cytometry analysis. All flow cytometry data were acquired with FACScalibur (BD biosciences) using the CellQuest software (BD Biosciences) and analyzed by FlowJo software.
(§3) The aim of our strategy is to induce an anti-tumor immune response to cure malignant pleural mesothelioma by using combinations of epigenetic drugs including HDACi. Therefore, it was necessary to study the effect of these HDACi on sub-populations of lymphocytes implicated in this immune response. […] Toxicity of the compounds was tested on natural killer cells (NK) (CD56+, CD16+), on regulatory T-cells (Treg) (CD4+, CD25+, CD127 low and Foxp3+), on CD4 and CD8 naïve T-cells (CD4+, CCR7+ and CD45RA+, and CD8+, CCR7+ and CD45RA+, respectively), and on CD4 and CD8 memory T cells (CD4+ and CD45RO+, and CD8+ and CD45RO+, respectively).

RIG-1 mRNA = RIG-1 mRNA expression in MPM cells by real time PCR; details: decitabine alone
Experimental: as §4

MDA5 mRNA = MDA5 mRNA expression in MPM cells by real time PCR; details: decitabine alone
Experimental: as §4

[3] = system: regulatory T-cells (Treg) (CD4+, CD25+, CD127 low and Foxp3+); assay: Flow cytometry of regulatory T cell proportion in treated lymphocytes; assay type: cell-based, human; details: decitabine alone 500 nM, 72 h
Experimental: as §1, §2, §3

For `O=C(CCCCCCC(=O)Nc1ccccc1)NO` [SAHA, Suberoylanilide hydroxamic acid], the “AUC (Area Under the Curve) T-CD8 clones + 5-aza 500nM” value (CD8 T-cell clones) is given as 35.07, the “AUC (Area Under the Curve) T-CD8 clones - 5-aza” value (CD8 T-cell clones) is given as 112.2 and the “clinical doses measured in blood from patients” value [1] is given as 1 to 4 µM. For the same molecule, the “blood concentrations reach in clinic” value ([1]; patients, clinical trials) was “approximately 1 μM”, the “PD-L1 mRNA” value (PD-L1 (B7-H1) mRNA; Meso96) was “significant increase” and the PD-L1 expression (PD-L1 (B7-H1) mRNA) was “increased”. The “toxicity for lymphocytes and CD8 T-cells” value (lymphocytes; at clinical doses measured in blood from patients (approximately 1 to 4 μM)) was “toxic”, the cells survived (lymphocytes; lymphocytes, highest dose of compound, in the presence or not of decitabine) was “approximately 40%” and the “AUC (Area Under the Curve) Lymphocytes + 5-aza 500nM” value (lymphocytes) was 183.9. For the same molecule, the “AUC (Area Under the Curve) Lymphocytes - 5-aza” value (lymphocytes) was 200.5.
In the case of `CCCC(CCC)C(=O)O` [VPA, valproic acid], the IC50 (CD8 T-cell clones; read-out: IC50 T-CD8 clones + Decitabine 500 nM, decitabine 500 nM 72 h pretreatment, then 48 h HDACi) is reported as 0.02 mM, the IC50 (CD8 T-cell clones; 48 h HDACi, no decitabine pretreatment, read-out: IC50 T-CD8 clones − Decitabine) is reported as 3.8 ± 0.06 mM and the “AUC (Area Under the Curve) T-CD8 clones + 5-aza 500nM” value (CD8 T-cell clones) is reported as 60.52. The “AUC (Area Under the Curve) T-CD8 clones - 5-aza” value (CD8 T-cell clones) was 216.8, the “blood concentrations observed during treatments” value ([1]; patients, clinical trials) was “approximately 1 mM” and the “PD-L1 mRNA” value (PD-L1 (B7-H1) mRNA; Meso96) was “significant increase”. For the same molecule, the PD-L1 expression (PD-L1 (B7-H1) mRNA) was “increased”, the “decrease of the proportion of NK cells” value ([2]; in comparison to untreated lymphocytes, 48 h, VPA 5 mM, SAHA 1 μM, ODB 32 μM, NODB 8 μM, ODH 4 μM, NODH 50 nM) was “more than 50%” and the hematological toxicity (lymphocytes; (blood concentration observed during treatments)) was “weak hematological toxicity”. The “AUC (Area Under the Curve) Lymphocytes + 5-aza 500nM” value (lymphocytes) was 208.5 and the “AUC (Area Under the Curve) Lymphocytes - 5-aza” value (lymphocytes) was 248.3.
For `Nc1ncn([C@H]2C[C@H](O)[C@@H](CO)O2)c(=O)n1` [decitabine, 5-Aza-2′-deoxycytidine], the “mRNA expression of PD-L1” value (PD-L1 (B7-H1) mRNA; Meso96, decitabine alone 500 nM) was “did not affect”, the PD-L1 expression (PD-L1 (B7-H1) mRNA) was “increased” and the “RIG-1 mRNA expression” value (RIG-1 mRNA; Meso34) was “increased significantly”. For the same molecule, the “RIG-1 mRNA expression” value (RIG-1 mRNA; Meso45) was “increased significantly”, the “RIG-1 mRNA expression” value (RIG-1 mRNA; Meso96) was “not” and the “effect on NK proportion” value ([2]; decitabine alone 500 nM, 72 h) was “reduced moderately”. The “MDA5 mRNA expression” value (MDA5 mRNA; Meso34) was “increased significantly”, the “MDA5 mRNA expression” value (MDA5 mRNA; Meso45) was “increased significantly” and the “MDA5 mRNA expression” value (MDA5 mRNA; Meso96) was “not”. For the same molecule, the “effect on Treg proportion” value [3] was “reduced moderately”.
